Target: Human TrkA Protein (Homo sapiens (Human), UniProt P04629)
Assay: Evaluation of Binding Activity for Human TrkA Protein (TrkA LanthaScreen Eu Kinase Binding Assay)
Details: TrkA enzyme, Kinase Tracer 236, TR-FRET, 60 minutes at room temperature
Protocol: (Pharmacological Experimental Example 1): Evaluation of Binding Activity for Human TrkA Protein
Measurement was carried out using TrkA LanthaScreen (registered trademark) Eu Kinase Binding Assay (ThermoFisher SCIENTIFIC). To a 384 well plate (Corning), 2.5 μL of the test compound having various concentrations and diluted with Kinase buffer (ThermoFisher SCIENTIFIC) and 2.5 μL of 15 nM TrkA enzyme (ThermoFisher SCIENTIFIC) were added. Moreover, […] Eu-anti-His Tag antibody (ThermoFisher SCIENTIFIC) and 5 μL of 30 nM Kinase (registered trademark) Tracer 236 (ThermoFisher SCIENTIFIC) were added, followed by reaction at room temperature for 60 minutes. After the reaction, the fluorescence intensity of Europium (Emission wavelength 615 nm) and TR-FRET (Emission wavelength 665 nm) with an excitation wavelength of 340 nm were measured with EnVision 2100 (PerkinElmer) to calculate the fluorescence ratio as the amount of the test compound and the TrkA enzyme bonded. The inhibitory activity (IC50 value) of each test compound was calculated with the fluorescence ratio of the well to which a solvent was added instead of the test compound being 0% and the fluorescence ratio of the well without addition of the TrkA protein being 100%.
In Table 1, […] mean Compounds 1 to 62 synthesized in accordance with Examples 1 to 62 described later.

Chain of Human TrkA Protein (P04629 33-796): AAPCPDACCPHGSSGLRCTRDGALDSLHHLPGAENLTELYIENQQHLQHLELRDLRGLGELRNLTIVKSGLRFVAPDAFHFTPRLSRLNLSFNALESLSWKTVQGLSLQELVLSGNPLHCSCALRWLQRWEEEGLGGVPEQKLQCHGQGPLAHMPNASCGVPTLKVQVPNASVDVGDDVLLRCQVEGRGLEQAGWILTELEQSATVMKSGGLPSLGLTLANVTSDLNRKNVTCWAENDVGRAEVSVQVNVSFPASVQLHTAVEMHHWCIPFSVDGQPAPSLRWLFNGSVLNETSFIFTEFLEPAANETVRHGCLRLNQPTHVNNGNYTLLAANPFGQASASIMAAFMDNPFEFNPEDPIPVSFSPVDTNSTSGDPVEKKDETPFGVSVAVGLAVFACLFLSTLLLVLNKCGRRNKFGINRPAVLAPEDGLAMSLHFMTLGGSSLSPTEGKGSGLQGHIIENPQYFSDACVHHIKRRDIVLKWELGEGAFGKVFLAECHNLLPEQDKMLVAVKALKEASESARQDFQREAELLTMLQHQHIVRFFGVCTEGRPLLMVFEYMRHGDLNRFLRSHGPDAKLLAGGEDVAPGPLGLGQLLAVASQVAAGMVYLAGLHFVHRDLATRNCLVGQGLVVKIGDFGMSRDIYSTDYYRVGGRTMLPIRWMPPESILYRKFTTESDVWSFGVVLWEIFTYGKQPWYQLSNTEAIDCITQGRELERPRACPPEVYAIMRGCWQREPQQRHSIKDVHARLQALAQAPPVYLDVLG

IC50 [nM]	Structure (SMILES)
≤ 50	Cc1cc(NC(=O)N[C@@H]2c3cc(F)c(F)cc3C(C)(C)C[C@H]2O)c(-c2ccccc2)nc1-c1cnn(C)c1 (racemic) [Compound 51, rac-1-((1R,2R)-6,7-difluoro-2-hydroxy-4,4-dimethyl-1,2,3,4-tetrahydronaphthalen-1-yl)-3-(5-methyl-6-(1-methyl-1H-pyrazol-4-yl)-2-phenylpyridin-3-yl)urea]
≤ 50	Cc1ncc(-c2nc(-c3ccccc3)c(NC(=O)N[C@@H]3c4cc(F)c(F)cc4C(C)(C)C[C@H]3O)cc2C)cn1 (racemic) [Compound 44a]
50 to 1000	Cc1ncc(-c2nc(C3CCOCC3)c(NC(=O)N[C@@H]3c4cc(F)c(F)cc4C(C)(C)C[C@H]3O)cc2C)cn1 (racemic) [Compound 59, rac-1-((1R,2R)-6,7-difluoro-2-hydroxy-4,4-dimethyl-1,2,3,4-tetrahydronaphthalen-1-yl)-3-(5-methyl-6-(2-methylpyrimidin-5-yl)-2-(tetrahydro-2H-pyran-4-yl)pyridin-3-yl) urea]
≤ 50	Cc1cc(NC(=O)N[C@@H]2c3ccccc3C(C)(C)C[C@H]2O)c(-c2ccccc2)nc1-c1ccc(C#N)nc1 [Compound 13, 1-(6′-cyano-3-methyl-6-phenyl-[2,3′-bipyridin]-5-yl)-3-((1R,2R)-2-hydroxy-4,4-dimethyl-1,2,3,4-tetrahydronaphthalen-1-yl)urea]
≤ 50	Cc1cc(NC(=O)N[C@@H]2c3ccccc3C(C)(C)C[C@H]2O)c(-c2ccccc2)nc1-c1ccc(O)nc1 [Compound 20, 1-(6′-hydroxy-3-methyl-6-phenyl-[2,3′-bipyridin]-5-yl)-3-((1R,2R)-2-hydroxy-4,4-dimethyl-1,2,3,4-tetrahydronaphthalen-1-yl)urea]
≤ 50	Cc1cc(NC(=O)N[C@@H]2c3ccccc3C(C)(C)C[C@H]2O)c(-c2ccccc2)nc1-c1ccc(O)nc1 (racemic) [Compound 6, rac-1-(6′-hydroxy-3-methyl-6-phenyl-[2,3′-bipyridin]-5-yl)-3-((1R,2R)-2-hydroxy-4,4-dimethyl-1,2,3,4-tetrahydronaphthalen-1-yl)urea]
≤ 50	Cc1cc(NC(=O)N[C@@H]2c3ccccc3C(C)(C)C[C@H]2O)c(-c2ccccc2)nc1C(=O)NCC(C)(C)O (racemic) [Compound 25, rac-N-(2-hydroxy-2-methylpropyl)-5-(3-((1R,2R)-2-hydroxy-4,4-dimethyl-1,2,3,4-tetrahydronaphthalen-1-yl)ureido)-3-methyl-6-phenylpicolinamide]
≤ 50	Cc1cc(NC(=O)N[C@@H]2c3cc(F)c(F)cc3C(C)(C)C[C@H]2O)c(-c2ccccc2)nc1C(N)=O (racemic) [Compound 40, rac-5-(3-((1R,2R)-6,7-difluoro-2-hydroxy-4,4-dimethyl-1,2,3,4-tetrahydronaphthalen-1-yl)ureido)-3-methyl-6-phenylpicolinamide]
≤ 50	Cc1ccc(NC(=O)N[C@@H]2c3cc(F)c(F)cc3C(C)(C)C[C@H]2O)c(-c2ccccc2)n1 (racemic) [Compound 39, rac-1-((1R,2R)-6,7-difluoro-2-hydroxy-4,4-dimethyl-1,2,3,4-tetrahydronaphthalen-1-yl)-3-(6-methyl-2-phenylpyridin-3-yl)urea]
≤ 50	Cc1cnc(-c2ccccc2)c(NC(=O)N[C@@H]2c3cc(F)c(F)cc3C(C)(C)C[C@H]2O)c1 (racemic) [Compound 37a]
50 to 1000	Cc1cc(NC(=O)N[C@@H]2c3cc(F)c(F)cc3C(C)(C)C[C@H]2O)c(C2CCOCC2)nc1C(=O)NCC(C)(C)O (racemic) [Compound 60, rac-5-(3-((1R,2R)-6,7-difluoro-2-hydroxy-4,4-dimethyl-1,2,3,4-tetrahydronaphthalen-1-yl)ureido)-N-(2-hydroxy-2-methylpropyl)-3-methyl-6-(tetrahydro-2H-pyran-4-yl)picolinamide]
50 to 1000	Cc1ccnc(-c2ccccc2)c1NC(=O)N[C@@H]1c2cc(F)c(F)cc2C(C)(C)C[C@H]1O (racemic) [Compound 38, rac-1-((1R,2R)-6,7-difluoro-2-hydroxy-4,4-dimethyl-1,2,3,4-tetrahydronaphthalen-1-yl)-3-(4-methyl-2-phenylpyridin-3-yl)urea]
≤ 50	Cc1ncc(-c2nc(-c3ccccc3)c(NC(=O)N[C@@H]3c4ccccc4C(C)(C)C[C@H]3O)cc2C)cn1 (racemic) [Compound 3, rac-1-((1R,2R)-2-hydroxy-4,4-dimethyl-1,2,3,4-tetrahydronaphthalen-1-yl)-3-(5-methyl-6-(2-methylpyrimidin-5-yl)-2-phenylpyridin-3-yl)urea]
≤ 50	Cc1cnc(-c2ccccc2)c(NC(=O)N[C@@H]2c3ccc(Br)cc3C(C)(C)C[C@H]2O)c1 (racemic) [Compound 22, rac-1-((1R,2R)-6-bromo-2-hydroxy-4,4-dimethyl-1,2,3,4-tetrahydronaphthalen-1-yl)-3-(5-methyl-2-phenylpyridin-3-yl)urea]
50 to 1000	Cc1cnc(C2CCOCC2)c(NC(=O)N[C@@H]2c3cc(F)c(F)cc3C(C)(C)C[C@H]2O)c1 (racemic) [Compound 57, rac-1-((1R,2R)-6,7-difluoro-2-hydroxy-4,4-dimethyl-1,2,3,4-tetrahydronaphthalen-1-yl)-3-(5-methyl-2-(tetrahydro-2H-pyran-4-yl)pyridin-3-yl)urea]
≤ 50	Cc1cc(NC(=O)N[C@@H]2c3ccccc3C(C)(C)C[C@H]2O)c(-c2ccccc2)nc1-c1cnc(C(C)(C)O)nc1 [Compound 21, 1-((1R,2R)-2-hydroxy-4,4-dimethyl-1,2,3,4-tetrahydronaphthalen-1-yl)-3-(6-(2-(2-hydroxypropan-2-yl)pyrimidin-5-yl)-5-methyl-2-phenylpyridin-3-yl)urea]
≤ 50	Cc1cc(NC(=O)N[C@@H]2c3ccccc3C(C)(C)C[C@H]2O)c(-c2ccccc2)nc1-c1ccc(C#N)cc1 [Compound 16, 1-(6-(4-cyanophenyl)-5-methyl-2-phenylpyridin-3-yl)-3-((1R,2R)-2-hydroxy-4,4-dimethyl-1,2,3,4-tetrahydronaphthalen-1-yl)urea]
≤ 50	Cc1cc(NC(=O)N[C@@H]2c3ccccc3C(C)(C)C[C@H]2O)c(-c2ccccc2)nc1-c1cnc(O)nc1 [Compound 19, 1-((1R,2R)-2-hydroxy-4,4-dimethyl-1,2,3,4-tetrahydronaphthalen-1-yl)-3-(6-(2-hydroxypyrimidin-5-yl)-5-methyl-2-phenylpyridin-3-yl)urea]
50 to 1000	Cc1cc(NC(=O)N[C@@H]2c3cc(F)c(F)cc3C(C)(C)C[C@H]2O)c(C2CCOCC2)nc1-c1cnc(O)nc1 (racemic) [Compound 62, rac-1-((1R,2R)-6,7-difluoro-2-hydroxy-4,4-dimethyl-1,2,3,4-tetrahydronaphthalen-1-yl)-3-(6-(2-hydroxypyrimidin-5-yl)-5-methyl-2-(tetrahydro-2H-pyran-4-yl)pyridin-3-yl)urea]
≤ 50	Cc1cnc(C2CCOCC2)c(NC(=O)N[C@@H]2c3ccccc3C(C)(C)C[C@H]2O)c1 (racemic) [Compound 26, rac-1-((1R,2R)-2-hydroxy-4,4-dimethyl-1,2,3,4-tetrahydronaphthalen-1-yl)-3-(5-methyl-2-(tetrahydro-2H-pyran-4-yl)pyridin-3-yl)urea]
